Source: US7879791B2 (Medical College of Georgia Research Institute, Inc., priority 1997, dated 2011)

Key:
[1] = patients / individuals, literature reports; cited from earlier work
MB49 tumor cells = assay: MB49 epithelial carcinoma in syngeneic hosts; assay type: in vivo, mouse
Experimental: In light of the data herein showing that the allogeneic fetus is able to protect itself against attack by the maternal immune system through expression of IDO, and given the expression of IDO in tumors as cited above, it was tested whether a similar mechanism allowed tumor cells to evade immune attack. The MB49 epithelial carcinoma model was chosen for proof of concept because it is an aggressive, lethal malignancy when innoculated into syngeneic hosts, but it can be rendered susceptible to immune attack if the host's immune system is suitably activated (Chen, et al. 1997 J. Immunol. 159, 351-359). […] MB49 tumor cells (1×10^6) were injected subcutaneously into syngeneic C57/B16 hosts. […] By day 10, all animals had evidence of initial tumor formation (palpable mass). By day 15, control animals were visibly ill and the experiment was terminated. Animals were sacrificed on day 11-15 for histologic examination.

[2] = test system: tryptophan transport system in MCSF-derived macrophages; assay: [3H]tryptophan uptake in MCSF-derived macrophages with competing unlabeled amino acids; assay type: cell-based, human; details: for effectiveness as competitor for tryptophan uptake compared with phenylalanine: titration studies
Experimental: The graph compares fresh monocytes, MCSF-derived macrophages (day 7), and MCSF-derived macrophages activated for the preceding 24 hrs with IFNγ. All assays were performed in the presence of 140 mM NaCl. […] A logarithmic scale is used to permit comparison.
Macrophages were cultured for 7 days in MCSF and activated during the last 24 hrs with IFNγ.
This sodium-independent system was then characterized using cross-competition studies.

T cells = assay: T cell proliferation (thymidine incorporation) in co-culture conditioned medium with tryptophan titrated back; assay type: cell-based, human
Experimental: FIG. 1 is a graph of thymidine incorporation (cpm) by T cells in the presence of supplemental amino acids. […] Human monocytes were allowed to differentiate into macrophages then co-cultured with mitogen-activated T cells (anti-CD3). Fresh PBMC were then suspended in this medium and activated with additional anti-CD3. […] Control cultures received fresh medium. Proliferation was measured by 4 hr thymidine incorporation after 72 hrs. Error bars show SD.
Fresh lymphocytes were suspended in conditioned medium and activated with additional mitogen. Care was taken to exclude all traces of fresh medium.

MCSF-derived macrophages [3] = assay: Elimination kinetics of tryptophan in co-cultures of MCSF-derived macrophages and mitogen-activated T cells; assay type: cell-based, human; details: when tryptophan was not limiting
Experimental: MCSF-derived macrophages were cultured for 24 hrs with autologous T cells, with or without anti-CD3 mitogen. The medium was replaced with fresh medium, and supernatant from replicate cultures harvested at the times shown. […] Error bars (less than 10%) are omitted for clarity.
Depletion of tryptophan is rapid. Macrophages were co-cultured with T cells and mitogen for 24 hrs to allow up-regulation of the tryptophan-depletion pathway, then fresh medium was added and the kinetics of elimination measured. […] This rapid rate of tryptophan depletion could not be attributed to consumption by cellular metabolism.

IDO [4] = target: T1, IDO (Homo sapiens, UniProt P14902); assay: Macrophage-mediated suppression of T cell proliferation in co-cultures of MCSF-derived macrophages and T cells with anti-CD3; assay type: cell-based; set-up: endogenous in cells; host or cells: MCSF-derived human monocyte-derived macrophages co-cultured with T cells; details: 10x normal tryptophan
Experimental: Proliferation was measured after 72 hrs by thymidine incorporation. The level of background proliferation contributed by macrophages is indicated by the dotted line. In FIG. 4B, macrophages were seeded at both low density (5×10^4/well) and high density (2×10^5/well).
Target sequence in this assay (P14902 whole entry): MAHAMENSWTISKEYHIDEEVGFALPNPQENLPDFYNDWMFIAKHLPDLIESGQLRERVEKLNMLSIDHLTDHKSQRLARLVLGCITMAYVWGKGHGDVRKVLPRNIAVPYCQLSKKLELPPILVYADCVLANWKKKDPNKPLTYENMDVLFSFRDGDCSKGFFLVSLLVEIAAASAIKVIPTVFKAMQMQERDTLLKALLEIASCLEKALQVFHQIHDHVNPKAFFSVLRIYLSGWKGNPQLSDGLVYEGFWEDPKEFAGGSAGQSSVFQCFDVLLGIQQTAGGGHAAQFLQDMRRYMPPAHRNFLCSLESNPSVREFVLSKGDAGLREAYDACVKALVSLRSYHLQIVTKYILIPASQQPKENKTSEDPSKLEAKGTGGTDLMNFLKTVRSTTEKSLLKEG

MCSF-derived macrophages [5] = assay: Induction of IDO activity (tryptophan degradation) in MCSF-derived macrophages by IFNγ with or without CD40L; assay type: cell-based, human
From the text: MCSF-derived macrophages were activated for 24 hrs with various concentrations of recombinant IFNγ, in the presence or absence of recombinant CD40-L trimer. […] SD was less than 10%.
The response of MCSF-derived macrophages to IFNγ in the presence or absence of recombinant CD40L (prepared as a homo-trimer in order to signal via CD40 in soluble form, gift of Bill Fanslow, Immunex Corporation) was compared.

IDO [6] = target: T1, IDO; set-up: host or cells: tumor xenografts in IFNγ-treated animals; details: IFNγ-treated animals; cited from earlier work
Target sequence in this assay (P14902 whole entry, species assumed): as the sequence (P14902 whole entry) above

[7] = group n = 7, pellets 0.9 mg/hr, 7-day release

Q: Which “autoimmune or adverse illness reported” value [1] does the source give for CC(n1cc(C[C@H](N)C(=O)O)c2ccccc21)n1cc(C[C@H](N)C(=O)O)c2ccccc21 [1-1′ ethylidenebis-[tryptophan]] here?
A: eosinophilia-myalgia syndrome

Q: For Cn1cc(C[C@H](N)C(=O)O)c2ccccc21 [1-methyl-tryptophan], which “continuation of responses after the period of inhibitor administration” value (MB49 tumor cells; administration days 1-7) is on record?
A: 4 to 7 days

Q: And the “histology (day 15)” value (MB49 tumor cells; day 15)?
A: apoptosis, necrosis,

Q: What about the complete responses (MB49 tumor cells; [7]) of the same molecule?
A: 1

Q: And the partial responses (MB49 tumor cells; [7])?
A: 6

Q: And the “tumor growth compared to vehicle control” value (MB49 tumor cells; immunocompetent, syngeneic hosts)?
A: significantly reduced tumor growth

Q: What about the performance status (MB49 tumor cells; mouse, in vivo) of the same molecule?
A: normal

Q: And the visible metastases (MB49 tumor cells; mouse, in vivo)?
A: none

Q: What about the “size of residual tumor” value (MB49 tumor cells; residual tumor necrotic) of the same molecule?
A: 1 cm (necrotic)

Q: Which results are given for NC1(C(=O)O)CC2CCC1C2 (centres unmarked) [BCH, 2-amino-2-norborane-carboxylic acid]?
A: total tryptophan transport still available ([2]; system L inhibited by 8 mM BCH): 30-50%; effectiveness as competitor for tryptophan uptake compared with phenylalanine [2]: even less effective competitors

Q: With N[C@@H](Cc1c[nH]c2ccc(O)cc12)C(=O)O [L-5-hydroxytryptophan] as the molecule, how does the “autoimmune or adverse illness reported” value [1] read?
A: high frequency of a scleroderma-like illness

Q: For N[C@@H](Cc1ccc(O)cc1)C(=O)O [Tyrosine], which “effectiveness as competitor for tryptophan uptake compared with phenylalanine” value [2] is on record?
A: even less effective competitors

Q: Which “effectiveness as competitor for tryptophan uptake compared with phenylalanine” value [2] does the source give for CC(C)C[C@H](N)C(=O)O [leucine] here?
A: even less effective competitors

Q: With N[C@@H](Cc1ccccc1)C(=O)O [phenylalanine] as the molecule, how does the “inhibition of tryptophan uptake by competing unlabeled amino acid” value ([2]; 8 mM each, sodium-independent, FIG. 8B) read?
A: could not fully block

Q: With N[C@@H](Cc1c[nH]c2ccccc12)C(=O)O [tryptophan] as the molecule, how does the EC50 (T cells; Homo sapiens, T-cell, 72 h, read-out: half-maximal concentration for T cell proliferation) read?
A: ~500 nM

Q: What about the “concentration sufficient to initiate low but readily detectable T cell proliferation” value (T cells; tryptophan in conditioned medium) of the same molecule?
A: 50 nM

Q: And the “initial rate of tryptophan elimination” value (MCSF-derived macrophages [3])?
A: up to 20,000 pmol/10^6 cells/hr

Q: And the “autoimmune or adverse illness reported” value [1]?
A: multiple autoimmune disorders

Q: What about the “reversal of suppression by supplemental tryptophan” value (IDO [4]; high seeding density (2x10^5/well)) of the same molecule?
A: remained able to suppress

Q: And the “reversal of suppression by supplemental tryptophan” value (IDO [4]; low seeding density (5x10^4/well))?
A: effectively reversed suppression

Q: What does the source list for “IFNγ: recombinant interferon gamma, inducer of IDO”?
A: IFNγ concentration at which significant response occurred (MCSF-derived macrophages [5]; in the presence of CD40L): ≥ 1 U/ml; concentration required for maximal induction of tryptophan degradation (MCSF-derived macrophages [5]; recombinant IFNγ alone, 24 hrs): ≥ 100 U/ml

B1: IFNγ: recombinant interferon gamma, inducer of IDO (protein, UniProt P01579 24-161, looked up)
Interferon gamma: QDPYVKEAENLKKYFNAGHSDVADNGTLFLGILKNWKEESDRKIMQSQIVSFYFKLFKNFKDDQSIQKSVETIKEDMNVKFFNSNKKKRDDFEKLTNYSVTDLNVQRKAIHELIQVMAELSPAAKTGKRKRSQMLFRG
Q: Which “reduction in tumor tryptophan compared to controls” value (IDO [6]) does the source give for B1 here?
A: approximately 80%

B2: CD40L: recombinant CD40L prepared as a homo-trimer to signal via CD40 in soluble form (protein, UniProt P29965 47-261, looked up)
extracellular domain: HRRLDKIEDERNLHEDFVFMKTIQRCNTGERSLSLLNCEEIKSQFEGFVKDIMLNKEETKKENSFEMQKGDQNPQIAAHVISEASSKTTSVLQWAEKGYYTMSNNLVTLENGKQLTVKRQGLYYIYAQVTFCSNREASSQAPFIASLCLKSPGRFERILLRAANTHSSAKPCGQQSIHLGGVFELQPGASVFVNVTDPSQVSHGTGFTSFGLLKL
modifications: extracellular domain soluble homo-trimer
notes: recombinant CD40L prepared as a homo-trimer to signal via CD40 in soluble form
Q: What does the source list for B2?
A: effect on enzyme activity (MCSF-derived macrophages [5]; CD40L alone): little effect; shift of the dose-response curve of IFNγ (MCSF-derived macrophages [5]; CD40L combined with IFNγ): one to two orders of magnitude
